Data from patent US20250188151A1, “C-JUN ANTAGONIST PEPTIDES” (The University of Bath, priority 2022, published 2025).
Bridge positions count the residues as written; N and C are the ends. Peptide text beside a SMILES is read from it.

B1: HingeW variant peptide 13 (peptide)
peptide: Ac-KEAEDLVVEEDVLEEEIEQLEERNYALRKEIKDLQDQ-NH2
modifications: lactam (positions not given here); also: one i to i+4 K-D lactam bridge, pair not given here
notes: Synthetic, NΔ19 CΔ7; also called cyclised form of 12/13
B2: HingeW variant peptide 15 (peptide)
peptide: Ac-EAKELVDEEDVLEEEIEQLEERNYALRKEIEDLQKQ-NH2
modifications: lactam 3-7
notes: Synthetic, NΔ20 CΔ7; also called cyclised form of 14/15

How the values were obtained:
cJun/TRE DNA interaction = molecular target: T1, cJun/TRE DNA interaction (Homo sapiens, UniProt P05412, S292Y); test: CD cJun/TRE DNA antagonism (shift of TRE DNA peak at ~281 nm, Hill fit); type: biochemical
T1 construct: The same 60 amino acid c-Jun bZIP construct was used for all experiments; His-SUMO (N, cleaved yes); made in house; host or cells: E. coli
Excerpt: Briefly, in TBS the coding region for the essential gene dihydrofolate reductase (DHFR) is mutated to incorporate TRE sites so that introduction of c-Jun to this gene inside E. coli produces a transcriptional block that abrogates cell proliferation. The TRE site-bound c-Jun molecules sterically prevent RNA polymerase transcribing the essential gene and this can only be restored upon introduction of an effective c-Jun/TRE antagonist. Consequently, the survival of a particular cell is controlled by the ability of a peptide library member to remove the c-Jun transcriptional block and therefore to restore DHFR activity. TBS thus facilitates the identification of therapeutically valuable sequences. Further details for the TBS assay are provided in WO2020128015, which is incorporated herein by reference in its entirety. […] The TRE-DNA construct produces a positive CD peak at ˜281 nm, which decreases in intensity upon c-Jun binding. […] This method allows for the calculation of an IC50 value by fitting the titration data to a Hill equation. In some embodiments, the c-Jun antagonist is able to inhibit the DNA-binding activity of c-Jun within 10-fold of the ability of HingeW to inhibit the DNA-binding activity of c-Jun (e.g. the c-Jun antagonist has a reduced ability to inhibit the DNA-binding activity of c-Jun that is within 10-fold of that determined for HingeW). In some embodiments, the c-Jun antagonist is able to inhibit the DNA-binding activity of c-Jun within 9-fold, preferably within 8-fold, more preferably within 7-fold, even more preferably within 6-fold, yet more preferably within 5-fold of the ability of HingeW to inhibit the DNA-binding activity of c-Jun. The ability of the c-Jun antagonist and HingeW to inhibit the DNA-binding activity may be measured using the TBS assay (e.g. by quantifying the number of colonies) or by determining the IC50 using a circular dichroism assay described herein. Optionally, the c-Jun antagonist may have this activity when cross-linked. Methods for cross-linking peptides are described in more detail below.
Therefore, the acidic domain was the initial focus for optimisation. 1 was iteratively truncated (2-6) to investigate the effect on c-Jun binding and c-Jun/TRE DNA antagonism. […] Thermal denaturation experiments were then used to determine the Tm of peptide-c-Jun heterodimers, which was used as an approximate measure of target engagement. CD was also used to investigate the ability of the functional activity of peptides in antagonising the c-Jun/TRE DNA interaction. The TRE-DNA construct used produces a positive CD peak at ˜281 nm (no c-Jun absorbance at this wavelength allows for direct measurement of DNA upon binding) which decreases in intensity upon c-Jun binding. […] This allowed for the calculation of an IC50 value by fitting the titration data to a Hill equation. […] The same 60 amino acid c-Jun bZIP construct was used for all experiments, regardless of antagonist peptide length.

[1] = CD spectra and thermal denaturation of peptide-only samples (helicity, homodimer Tm); settings: for change in fraction helicity from lactamisation: cyclised vs its linear form
Method: Circular Dichroism (CD): An Applied Photophysics Chirascan was used for CD measurements, with a 200 μL sample in a 1 mm path length CD cell. Protein/DNA samples were suspended in 150 mM potassium phosphate, 150 mM potassium fluoride and 5 mM TCEP at pH 7.4 and were equilibrated for 30 minutes before measurement. […] These scans were averaged and converted to molar residue ellipticities (MRE). Thermal denaturation experiments were performed by measuring the ellipticity at 222 nm over a 1 to 90° C. gradient at 1° C. increments. Post-melt scans at 20° C. confirmed the transitions were reversible as they overlaid within 10% of the pre-melt scan.
Circular Dichroism (CD): An Applied Photophysics Chirascan was used for CD measurements, with a 200 μL sample in a 1 mm path length CD cell. Protein/DNA samples were suspended in 150 mM potassium phosphate, 150 mM potassium fluoride and 5 mM TCEP at pH 7.4 and were equilibrated for 30minutes before measurement. […] Thermal denaturation experiments were performed by measuring the ellipticity at 222 nm over a 1 to 90° C. gradient at 1° C. increments. Post-melt scans at 20° C. confirmed the transitions were reversible as they overlaid within 10% of the pre-melt scan.
Peptide helicity was determined by quantifying the CD signal at 222 nm of peptide only samples. Thermal denaturation experiments were then used to determine the Tm of peptide-c-Jun heterodimers, which was used as an approximate measure of target engagement. […] The same 60 amino acid c-Jun bZIP construct was used for all experiments, regardless of antagonist peptide length.

cJun bZIP [2] = molecular target: cJun bZIP (Homo sapiens, UniProt P05412, S292Y); test: CD spectra and thermal denaturation of peptide/cJun heterodimers; settings: for Tm (° C.): peptide (5 μM)/c-Jun (5 μM) heterodimer, Table 6
cJun = cJun (Homo sapiens, UniProt P05412, S292Y); test: Isothermal titration calorimetry, Example 2 (PEAQ-ITC); type: binding; design: The same 60 amino acid c-Jun bZIP construct was used for all experiments; His-SUMO (N, cleaved yes); made in house; host or cells: E. coli; settings: for ΔG / ΔH / −TΔS / Stoichiometry, n: ITC; for Stoichiometry, n: c-Jun-peptide interaction
Method: 2 μL injections of antagonist peptide at 25-200 μM were injected into the cell containing cJun at 2.5-20 μM. Software was used to record and analyse the heat change upon addition. Control experiments involved the injection of the antagonist peptide sample into the cell containing ITC buffer alone to determine the heat of dilution which was subtracted. The resulting binding data were fit to a one site binding model to extract the enthalpy change of binding (ΔH) and the equilibrium binding constant (KD), from which the free energy change of binding (ΔG) and the entropy change of binding (ΔS) was calculated (Wiseman et al., 1989). Thermodynamic parameters are presented as an average of two independent experiments with errors given as one standard deviation.

Serum stability (LC-MS) = type: in vitro ADME; settings: human serum; for remaining at 96 h, 30 μM / metabolised at 24 h, 30 μM: 37° C.; for remaining at 96 h, 30 μM: after 96 hours, read-out: peak intensities relative to starting values; for metabolised at 24 h, 30 μM: read-out: degraded
Method: Serum Stability: Peptide stocks (600 μM) were prepared in water and 50 μL added to 950 μL human serum (Merck) before incubation at 37° C. […] The supernatant was analysed by LC-MS and quantified using the sum of the two largest charge state intensities (1: 9+, 10+; 23,24: 3+, 4+).

cJun bZIP [3] = molecular target: T2, cJun bZIP (human, UniProt P05412 252-308, limits assumed); test: CD thermal denaturation, peptide 5 µM and c-Jun 5 µM
T2 construct: Purified from a His-SUMO fusion with the tag cleaved off; also called c-Jun bZIP domain; 60 amino acid c-Jun bZIP construct
T2 chain: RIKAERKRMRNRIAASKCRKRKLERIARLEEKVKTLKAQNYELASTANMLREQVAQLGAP

cJun bZIP [4] = molecular target: T2, cJun bZIP; test: cell-based or functional assay
cJun bZIP [5] = molecular target: T2, cJun bZIP; test: CD thermal denaturation

| Molecule | change in fraction helicity from lactamisation [1] | Tm (° C.) (cJun bZIP [2]) | ΔG (cJun) | ΔH (cJun) | −TΔS (cJun) | Stoichiometry, n (cJun) | remaining at 96 h, 30 μM (Serum stability (LC-MS)) | metabolised at 24 h, 30 μM (Serum stability (LC-MS)) | Tm (° C.) of peptide-c-Jun heterodimer (cJun bZIP [3]) | IC50 CD (cJun bZIP [4]) | further results |
| --- | --- | --- | --- | --- | --- | --- | --- | --- | --- | --- | --- |
| CC[C@H](C)[C@H](NC(=O)[C@H](CCC(=O)O)NC(=O)[C@H](CCCCN)NC(=O)[C@H](CCCNC(=N)N)NC(=O)[C@H](CC(C)C)NC(=O)[C@H](C)NC(=O)[C@H](Cc1ccc(O)cc1)NC(=O)[C@H](CC(N)=O)NC(=O)[C@H](CCCNC(=N)N)NC(=O)[C@H](CCC(=O)O)NC(=O)[C@H](CCC(=O)O)NC(=O)[C@H](CC(C)C)NC(=O)[C@H](CCC(N)=O)NC(=O)[C@H](CCC(=O)O)NC(=O)[C@@H](NC(=O)[C@H](CCC(=O)O)NC(=O)[C@H](CCC(=O)O)NC(=O)[C@H](CCC(=O)O)NC(=O)[C@H](CC(C)C)NC(=O)[C@@H](NC(=O)[C@H](CC(=O)O)NC(=O)[C@H](CCC(=O)O)NC(=O)[C@H](CCC(=O)O)NC(=O)[C@@H](NC(=O)[C@@H](NC(=O)[C@H](CC(C)C)NC(=O)[C@H](CCC(=O)O)NC(=O)[C@H](CCC(=O)O)NC(=O)[C@H](C)NC(=O)[C@H](CCC(=O)O)NC(C)=O)C(C)C)C(C)C)C(C)C)[C@@H](C)CC)C(=O)N[C@H]1CCCCNC(=O)C[C@@H](C(=O)N[C@@H](CCC(N)=O)C(N)=O)NC(=O)[C@H](CCC(N)=O)NC(=O)[C@H](CC(C)C)NC(=O)[C@H](CC(=O)O)NC1=O [Peptide 23] (Ac-EAEELVVEEDVLEEEIEQLEERNYALRKEIKDLQDQ-NH2; lactam 31-35 (inferred)) | ~8% | 65.0 ± 1.4 °C | -9.661 ± 0.117 kcal/mol | -23.6 ± 0.607 kcal/mol | 13.95 ± 0.619 kcal/mol | 0.97 ± 0.02 | 17% | 21% | – | – | fold lower IC50 than 11 (cJun/TRE DNA interaction; P=0.003): 1.6 fold; heterodimer ΔTm compared to parent sequence 11 (cJun bZIP [2]): ~8 °C; heterodimer ΔTm from lactamisation (cJun bZIP [2]; cyclised vs its linear form): ~9 °C; Kd (cJun): 0.0866 ± 0.017 µM |
| CC[C@H](C)[C@H](NC(=O)[C@H](CCC(=O)O)NC(=O)[C@H](CCCCN)NC(=O)[C@H](CCCNC(=N)N)NC(=O)[C@H](CC(C)C)NC(=O)[C@H](C)NC(=O)[C@H](Cc1ccc(O)cc1)NC(=O)[C@H](CC(N)=O)NC(=O)[C@H](CCCNC(=N)N)NC(=O)[C@H](CCC(=O)O)NC(=O)[C@H](CCC(=O)O)NC(=O)[C@H](CC(C)C)NC(=O)[C@H](CCC(N)=O)NC(=O)[C@H](CCC(=O)O)NC(=O)[C@@H](NC(=O)[C@H](CCC(=O)O)NC(=O)[C@@H]1CC(=O)NCCCC[C@H](NC(=O)[C@H](CCC(=O)O)NC(=O)[C@H](CCC(=O)O)NC(=O)[C@@H](NC(=O)[C@@H](NC(=O)[C@H](CC(C)C)NC(=O)[C@H](CCC(=O)O)NC(=O)[C@H](CCC(=O)O)NC(=O)[C@H](C)NC(=O)[C@H](CCC(=O)O)NC(C)=O)C(C)C)C(C)C)C(=O)N[C@@H](C(C)C)C(=O)N[C@@H](CC(C)C)C(=O)N[C@@H](CCC(=O)O)C(=O)N1)[C@@H](C)CC)C(=O)N[C@@H](CCC(=O)O)C(=O)N[C@@H](CC(=O)O)C(=O)N[C@@H](CC(C)C)C(=O)N[C@@H](CCC(N)=O)C(=O)N[C@@H](CCCCN)C(=O)N[C@@H](CCC(N)=O)C(N)=O [Peptide 17] (Ac-EAEELVVEEKVLEDEIEQLEERNYALRKEIEDLQKQ-NH2; lactam 10-14) | ~5% | 64.0 ± 0.8 °C | -9.766 ± 0.0669 kcal/mol | -14.1 ± 0.402 kcal/mol | 4.336 ± 0.406 kcal/mol | 1.20 ± 0.02 | – | – | – | – | effect of lactamisation on antagonism (cJun/TRE DNA interaction; P=0.24): did not lead to a significant increase in antagonism |
| CC[C@H](C)[C@H](NC(=O)[C@H](CCC(=O)O)NC(=O)[C@H](CCCCN)NC(=O)[C@H](CCCNC(=N)N)NC(=O)[C@H](CC(C)C)NC(=O)[C@H](C)NC(=O)[C@H](Cc1ccc(O)cc1)NC(=O)[C@H](CC(N)=O)NC(=O)[C@H](CCCNC(=N)N)NC(=O)[C@H](CCC(=O)O)NC(=O)[C@H](CCC(=O)O)NC(=O)[C@H](CC(C)C)NC(=O)[C@H](CCC(N)=O)NC(=O)[C@H](CCC(=O)O)NC(=O)[C@@H](NC(=O)[C@H](CCC(=O)O)NC(=O)[C@@H]1CC(=O)NCCCC[C@H](NC(=O)[C@H](CCC(=O)O)NC(=O)[C@H](CCC(=O)O)NC(=O)[C@@H](NC(=O)[C@@H](NC(=O)[C@H](CC(C)C)NC(=O)[C@H](CCC(=O)O)NC(=O)[C@H](CCC(=O)O)NC(=O)[C@H](C)NC(=O)[C@H](CCC(=O)O)NC(C)=O)C(C)C)C(C)C)C(=O)N[C@@H](C(C)C)C(=O)N[C@@H](CC(C)C)C(=O)N[C@@H](CCC(=O)O)C(=O)N1)[C@@H](C)CC)C(=O)N[C@H]1CCCCNC(=O)C[C@@H](C(=O)N[C@@H](CCC(N)=O)C(N)=O)NC(=O)[C@H](CCC(N)=O)NC(=O)[C@H](CC(C)C)NC(=O)[C@H](CC(=O)O)NC1=O [Peptide 24] (Ac-EAEELVVEEKVLEDEIEQLEERNYALRKEIKDLQDQ-NH2; lactam 10-14, 31-35 (inferred)) | – | 63.2 ± 1.3 °C | -10.95 ± 0.241 kcal/mol | -30.55 ± 0.624 kcal/mol | 19.6 ± 0.669 kcal/mol | 1.05 ± 0.01 | 35% | 7% | – | – | change in IC50 compared to the best single lactamised peptide (cJun/TRE DNA interaction; P=0.02): significant decrease in IC50 value; increase in peptide helicity from 1 [1]: 20%; more helical compared to the best single lactamised peptide [1]: ~4%; change in heterodimer Tm compared to the best single lactamised peptide (cJun bZIP [2]): no significant change in heterodimer Tm; serum stability (Serum stability (LC-MS); LC-MS): highest stability |
| B1 | – | – | – | – | – | – | – | – | 58.5 ° C. | 92.5 µM | heterodimer ΔTm against parent sequence 11 (cJun bZIP [5]): ~1 ° C. |
| B2 | – | – | – | – | – | – | – | – | 59.4 ° C. | 81.1 µM | heterodimer ΔTm from lactamisation (15 against linear 14) (cJun bZIP [5]): ~2 ° C. |
